This assay deals with Chlamydia trachomatis. It is filed as in vivo, mice. As to conditions: subcutaneous immunization with UV-inactivated Chlamydia, alone or co-administered with the named adjuvant.

On to `CC(C)Cn1cnc2c(N)nc3ccccc3c21` [IMQ, imiquimod], for which the “Protection against genital Chlamydia challenge (Chlamydia load)” value was “did not provide protection or tolerance”.
